Measurements published in PubChem BioAssay (NCI).
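Values below derive from 48-hour exposures of cells grown in 96-well plates, with endpoints linearly interpolated between the two concentrations bracketing the appropriate inhibition level. TGI: concentration producing complete growth inhibition.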

Columns and labels:
Assay in all cases: inhibition of tumour cell growth, NCI panel, 48 h
[1] = test system: HOP-92 NSCLC
[2] = test system: HOP-62 NSCLC
[3] = test system: SW-620 colon
[4] = test system: PC-3 prostate
[5] = test system: NCI-H522 lung
[6] = test system: TK-10 renal
[7] = test system: NCI-H226 lung
[8] = test system: HS 578T breast
[9] = test system: CAKI-1 renal
[10] = test system: SK-OV-3 ovarian
[11] = test system: M14 melanoma

Row | SMILES | TGI [1] [µM] | TGI [2] [µM] | TGI [3] [µM] | TGI [4] [µM] | TGI [5] [µM] | TGI [6] [µM] | TGI [7] [µM] | TGI [8] [µM] | TGI [9] [µM] | TGI [10] [µM] | TGI [11] [µM]
1 | O=c1cc(N2CCNCC2)nc2ccccn12 | > 100 | > 100 | > 100 | > 100 | > 100 | > 100 | > 100 | > 100 | > 100 | > 100 | > 100
2 | Cc1cc2cc3c(cc2c(-c2ccc([N+](=O)[O-])cc2)n1)OCO3 | 56.8 | 40 | > 100 | > 100 | 40.6 | > 100 | 89.8 | > 100 | > 100 | 71.2 | > 100
3 | COC(=O)c1cc(C)ccc1C1CN=NC12Cc1ccc(C)cc1C2=O (configuration not stated) | 66.5 | > 100 | > 100 | > 100 | 98.9 | > 100 | > 100 | > 100 | > 100 | > 100 | > 100
4 | COc1ccccc1N(CN1C(=O)CCC1C(=O)O)C(C)=O (configuration not stated) | > 100 | > 100 | > 100 | > 100 | > 100 | > 100 | > 100 | > 100 | > 100 | > 100 | > 100
5 | O=P1(O)c2ccccc2CCc2ccccc21 | > 100 | > 100 | > 100 | > 100 | > 100 | > 100 | > 100 | > 100 | > 100 | > 100 | > 100
6 | COc1cc2ncnc(Nc3cccc(Cl)c3)c2cc1OC | 38.9 | 58.7 | 45 | 70.2 | 18.4 | 3.61 | 14.8 | 25 | 25.5 | 28.9 | 25.4
7 | COc1nc(N=P(c2ccccc2)(c2ccccc2)c2ccccc2)cc(=O)[nH]1 | > 100 | > 100 | > 100 | > 100 | > 100 | > 100 | > 100 | > 100 | > 100 | > 100 | > 100
8 | CC(=O)N(C(C)=O)n1c(Cc2ccc(Cl)cc2)n[nH]c1=O | > 100 | 98.8 | > 100 | > 100 | > 100 | > 100 | > 100 | > 100 | > 100 | > 100 | > 100
9 | O=S(=O)(SC1=NCCN1)c1ccc2ccccc2c1 | > 100 | 69.5 | 43.6 | > 100 | 46.3 | > 100 | 98 | > 100 | > 100 | 54.7 | 63.6
10 | CCCCCCCCCCCCN(CC(O)C(O)C(OC1OC(CO)C(O)C(O)C1O)C(O)CO)C(=O)CCCCCCCCCCC (configuration not stated) | 39.5 | 55.6 | 33.6 | 52.9 | 52.9 | 29.9 | 44.6 | 82.7 | 33.3 | 52.6 | 39.7
11 | CC(C)(C)/C(=N\Nc1nc2ccccc2[nH]1)c1ccccn1 | > 100 | > 100 | > 100 | > 100 | > 100 | 67.8 | > 100 | > 100 | > 100 | > 100 | > 100
12 | O=C(O)c1ccccc1/C=N/NC1=NCCN1 | 91.9 | > 100 | > 100 | > 100 | > 100 | > 100 | > 100 | > 100 |  | > 100 | > 100
13 | O=C1CN(C(=O)C2CCCN2C(=O)C2CCCN2)C(=O)CN1 (configuration not stated) | > 100 | > 100 | > 100 | > 100 | > 100 | > 100 | > 100 | > 100 | > 100 | > 100 | > 100
14 | O=C1CSSCC(=O)Nc2ccccc2N1 | > 100 | > 100 | > 100 | > 100 | > 100 | > 100 | > 100 | > 100 | > 100 | > 100 | > 100
15 | Cc1ccc([N+](=O)[O-])cc1S(=O)(=O)Nc1ccc(C2=NN(c3ccc([N+](=O)[O-])cc3[N+](=O)[O-])C(c3cccs3)C2)cc1 (configuration not stated) | 84.6 | 58.3 | > 100 | > 100 | 39 | 81.7 | 60.1 | 79.1 | > 100 | 77.9 | 32.9
16 | Nc1nc(I)nc2c1ncn2C1OC(COS(N)(=O)=O)C(O)C1O (configuration not stated) | 0.0464 | 0.0836 | 0.165 | 0.0423 | < 0.01 | 0.071 | < 0.0159 | 0.0273 | 0.129 | 0.0458 | 0.028
17 | O=c1oc2ccccc2cc1-c1csc(Nc2ccc(F)cc2)n1 | 24.4 | 8.22 | 15.3 | 19.3 | 3.82 | 8.21 | 19.7 | 4.61 | 10.6 | 15.6 | 13.6
18 | O=c1[nH]nc(-c2ccccc2)n1/N=C/c1ccc([N+](=O)[O-])cc1 | 32 | 25.8 | > 100 | > 100 | > 100 | 55 | > 75 | 98.2 | > 59.3 | 9.34 | > 100

Row | SMILES | TGI [1] [µM] | TGI [2] [µM] | TGI [3] [µM] | TGI [4] [µM] | TGI [5] [µM] | TGI [6] [µM] | TGI [7] [µM] | TGI [8] [µM] | TGI [9] [µM] | TGI [10] [µM] | TGI [11] [µM]
19 | CCN(CC)CCn1nc(N)c2nc3ccccc3nc21 | > 100 | > 100 | > 100 | > 100 | > 100 | > 100 | > 100 | > 100 | > 100 | > 100 | > 100
20 | CO/C(N)=C(\C#N)N=Cc1ccco1 | > 100 | > 100 | > 100 | > 100 | > 100 | > 100 | > 100 | > 100 | > 100 | > 100 | > 100
21 | CN(C)/N=C(/CC(O)(C(F)(F)F)C(F)(F)F)c1ccc([N+](=O)[O-])cc1 | > 100 | > 100 | > 100 | > 100 | > 100 |  | > 100 | > 100 | > 100 | > 100 | > 100
22 | c1nc(N2CC2)c2cnn(C3CCCCO3)c2n1 (configuration not stated) | > 100 | > 100 | > 100 | > 100 | > 100 | > 100 | > 100 | > 100 | > 100 | > 100 | > 100
23 | Cc1ccc(S(=O)(=O)c2ccsc2NC(=O)C(F)(F)F)cc1 | > 100 | > 100 | > 100 | > 100 | > 100 | > 100 | > 100 | > 100 | 82.6 | > 100 | > 100
24 | c1ccc(-c2cn3c(nc4ccccc43)c(-c3ccccc3)n2)cc1 | 62 | 27.9 | > 100 | > 100 | > 100 | > 93.4 | > 96.7 | > 94.2 | > 100 | 38.4 | > 100
25 | O=C(O)COCC(=O)N(CCOCCN(Cc1ccccc1)C(=O)COCC(=O)O)Cc1ccccc1 | > 100 | > 100 | > 100 | > 100 | > 100 | > 100 | > 100 | > 100 | > 100 | > 100 | > 100
26 | COC1(C)CP(=O)(OC(C)C)CC(C)=C1Cl (configuration not stated) | 25.6 | 51.7 | 32.4 | 77.9 | 24.8 | 33.2 | 78.2 | > 100 | 36.8 | > 100 | 46.2
27 | COc1cc(/C=N\N(C)C)cc(/C=N/N(C)C)c1O | 61.8 | > 100 | > 100 | 96.2 | > 100 | > 100 | 50.6 | 20.9 | 52.1 | 55.4 | 83.9
28 | CN1CCN(c2ccc3[nH]c(-c4cc(O)c5c(nc(CO)n5C)c4O)nc3n2)CC1 | > 100 | > 100 | > 100 | > 100 | > 100 |  | 96.5 | > 100 | > 100 | > 100 | > 100
29 | CC(=O)c1sc2c(c1OC(=O)c1ccco1)c(=O)n(-c1ccccc1)c(=S)n2-c1ccccc1 | 22 | 66.8 | > 100 | 64.2 | 39.7 | 92.6 | 16.1 | 20 | > 100 | 55.3 | 28.3
30 | CC(=N)OC1CC2CCC1(C)C2(C)C (configuration not stated) | > 100 | > 100 | > 100 | > 100 | > 100 | > 100 | > 100 | > 100 | > 100 | > 100 | > 100
31 | C[N+](C)(C)CCCSc1nc2ccccc2[nH]1 | > 100 | > 100 | > 100 | > 100 | > 100 | > 100 | > 100 | > 100 | > 100 | > 100 | > 100
32 | Ic1ccc2c(c1)N(c1ccccc1)c1cc(N=c3ccc4nc5ccc(I)cc5n(-c5ccccc5)c-4c3)ccc1N2 | > 100 | > 100 | > 100 | > 100 | 69 | > 100 | > 100 | > 100 | > 100 | > 100 | 80.1
33 | CCOC(=O)C1(Cc2ccccc2)C=CN(C(=O)c2ccccc2)C=C1 | 80 | > 100 | > 100 | > 100 | 76 | 88.3 | > 100 | > 100 | > 100 | > 100 | > 100
34 | C/C(Cl)=N/OC(=O)Nc1ccc(S(N)(=O)=O)c(C)c1 | 4.7 | 34.9 | 3.27 | 32.3 | 3.45 | 17.9 | 47.6 | > 79.4 | 3.23 | > 58.3 | 25.2
35 | COc1ccc2c(c1)-c1nc(=S)n(CCCN(C)C)c3ccc([N+](=O)[O-])c(c13)N2 | 20.7 | 2.46 | 7.18 | 17.4 | 2.98 | 17.1 | 24.4 | 5.6 | 19.8 | 19.4 | 22.1
